Reference: patent US20230220331A1, “TEMPORARY TREATMENT MEDIUM, TREATMENT KIT, EMBRYOGENESIS ARREST INHIBITOR, EMBRYOGENESIS ARREST INHIBITORY METHOD, DEVELOPMENTAL ENGINEERING PRODUCT PREPARATION METHOD, TRANSPLANTATION METHOD, THERAPEUTIC METHOD, AND DEVELOPMENTAL ENGINEERING PRODUCT” (priority 2020, published 2023)

How the values were obtained:
[1] = test system: two-cell frozen embryo of a heterologous inbred SPR2 mouse; experiment: ES cell establishment from SPR2 frozen embryos (Treatment Example 3); type: cell-based, Mus spretus; settings: 5 SPR2 frozen embryos thawed and cultured to blastocyst in Y-27632 medium
Protocol: 5. Then, if necessary, the culture was continued in the Y-27632-free mWM medium to establish ES cells.
After thawing a two-cell frozen embryo of a heterologous inbred SPR2 mouse, it was cultured to a blastocyst in the temporary treatment medium containing Y-27632, and an attempt was made to establish ES cells. As a result, ES cells could be efficiently established (5 frozen embryos, 2 strains established). On the other hand, when Y-27632 was not added, no individual production and ES cells were established.

inbred rat F344 embryos = experiment: Development to blastocyst after two electroporations (Treatment Example 5); type: cell-based; settings: treated before and after electroporation
Protocol: (§1) 1. At least 3 hours before TAKE, 5 drops of Y-27632-added KSOM AA medium (Y-27632 final concentration 10 μM, an example of the “temporary treatment medium” of this example) were placed on a 35 mm Petri dish and drops covered with paraffin oil.
(§2) 2. Pronuclear stage embryos were collected, placed in Y-27632-added KSOM AA medium, and cultured for about 30 minutes to 1 hour (temporary treatment).
(§3) 3. After that, the first TAKE was performed.
(§4) 4. After TAKE, the embryos were placed in Y-27632-added KSOM AA medium and cultured under 37° C., 5% CO2, and 5% O2 conditions for 30 minutes and more and up to 12 hours (temporary treatment).
(§5) 5. Then, they were placed in Y-27632-free KSOM AA medium (an example of the “normal medium” of this example), and cultured under 37° C., 5% CO2, and 5% O2 conditions until the second TAKE.
(§6) 6. The next day, the embryos that had become two cells were separated, and about 20 to 22 hours after egg collection, they were placed in Y-27632-added KSOM AA medium again and cultured for about 30 minutes to 1 hour (temporary treatment).
(§7) 7. After that, the second TAKE was performed.
8. […]
In these figures, the development rate of the two-cell stage was calculated as the ratio of the two-cell stage embryo to the pronuclear stage embryo, and the development rate of the blastocyst stage was calculated as the ratio of the blastocyst stage to the two-cell stage embryo.

[2] = test system: pronuclear stage embryos of F344 rat; experiment: Flox rat knock-in by 2STEP electroporation with high concentration ssODN (Treatment Example 6); type: cell-based; settings: ssODN 800 ng/μL, 14 transfer pulses
Protocol: as §1, §2, §3, §4, §5, §6, §7
8. After the second TAKE, the embryos were placed in Y-27632-added KSOM AA medium and cultured for about 30 minutes to 1 hour (temporary treatment).
9. Then, they were transferred to mR1ECM medium (an example of “normal medium” of this example). […]

[3] = test system: immunodeficient mouse (nude) pronuclear stage embryos, BALB/c-nu; experiment: Multi-gene knockout (BBOX1, IL2RG) in nude mouse embryos (Treatment Example 7); type: cell-based
Protocol: 1. Up to 3 hours before TAKE, Y-27632-added mWM medium (Y-27632 final concentration 10 μM, an example of the “temporary treatment medium” of this example) and Y-27632-free mWM medium (an example of “normal medium” of this example) were dropped into 35 mm Petri dishes by 5 drops, respectively, to prepare the drops covered with paraffin oil.
2. Pronuclear stage embryos were collected from the drops, placed in Y-27632-added mWM medium, and cultured for about 30 minutes to 1 hour (temporary treatment).
3. After that, TAKE was performed.
4. After TAKE, the embryos were placed in Y-27632-added mWM medium and cultured for about 30 minutes to 1 hour (temporary treatment).
5. Then, the embryos were placed in Y-free mWM medium and cultured at 37° C. under 5% CO2 and (5% O2) conditions until the next day. If necessary, culture was continued or embryo transfer was performed in Y-27632-free mWM medium.
In this production example, a multi-gene KO mouse was prepared by using an immunodeficient mouse (nude, a nude mouse) embryo.
Specifically, a male of BALB/c-nu/nu and a female of BALB/c-nu/+ treated with ovarian hyperstimulation were crossed, and a pronuclear stage embryos were collected. The guide RNAs (crRNA: tracrRNA), which are two for the BBOX1 gene and two for the IL2RG gene, are electroporated at about 100 ng/μL per guide RNA, totaling about 400 ng/μL, are electroporated with 14 transfer pulses, and, before and after the electroporation, the embryos were cultured in the temporary treatment medium of this example.

[4] = test system: frozen and thawed pronuclear stage and 2-cell stage embryos of rat Wistar-Imamichi; experiment: Genome-edited individuals by frozen 1-2 cell TAKE of Wistar-Imamichi (Treatment Example 17); type: cell-based
From the text: Next, knock-outs by TAKE were also produced in the pronuclear stage (1 cell) and the 2-cell stage (2 cells) […] of the frozen and thawed inbred rat Wistar-Imamichi. The conditions at this time were that the gRNA concentration was a specified amount (1 time), the pulse was 7 times, and the reduction rate was 40%.

C57BL/6J blastocysts = experiment: Developmental efficiency of frozen embryo transfer (Treatment Example 18); type: cell-based, mouse; settings: C57BL/6J freeze-thawed blastocysts, 38 embryos transferred
Protocol: Specifically, in the blastocysts of C57BL/6J mice, a freeze-thaw manipulation was performed by using the above-mentioned temporary treatment medium by using Y-27632 or the normal medium as control. Further, an average of 20 blastocysts per recipient (MCH mouse) was transplanted into the uterus. The newborn was delivered by Caesarean section (CS), and the number of implantation marks and the number of newborns were confirmed. Weaning mice were suckled by foster parents, the number of weaning mice was confirmed, and the weaning survival rate was calculated. In addition, the embryo medium was used based on the mWM medium.

[5] = of 4 surviving and 3 stillborn newborns analysed

C[C@@H](N)[C@H]1CC[C@H](C(=O)Nc2ccncc2)CC1 [Y-27632, trans-4-[(1R)-1-Aminoethyl]-N-4-pyrid inylcyclohexanecarboxamide]
ES cell strains established [1]: 2 strains | 2-cell stage embryos developed until the blastocyst stage (proportion) (inbred rat F344 embryos): 74 of 103 | embryos developed to the blastocyst (%) (inbred rat F344 embryos; ratio of blastocysts to 2-cell embryos): 71.8% | samples developed to blastocysts (PCR AMPLIFICATION) ([2]; F344, 2STEP, of 86 samples): 67 | Flox (proportion) ([2]; F344 blastocysts, 2STEP): 1/67 | pups born ([3]; BALB/c nude embryos, 4 guide RNAs about 400 ng/μL, 14 transfer pulses, 63 embryos transplanted): 16 | analysed newborns with mutations [3, 5]: 3 | analysed newborns with mutations in 2 genes [3, 5]: 1 | NUMBER OF KO INDIVIDUALS (Large Deletion) ([4]; 37 TAKE embryos, 1 recipient): 2 | NUMBER OF NEWBORNS ([4]; 37 TAKE embryos, 1 recipient, 1x gRNA, 7 pulses, 40% reduction rate): 8 | KO rate (Large deletion) (%) ([4]; KO individuals / newborns analyzed): (25%) | Implantation mark (C57BL/6J blastocysts): 13 | Weaning (number of weaning mice) (C57BL/6J blastocysts): 10 | Weaning survival rate (C57BL/6J blastocysts): 100% | Pups (CS) (C57BL/6J blastocysts; Caesarean section): 10
